These results are taken from patent US8420657B2 (Novartis AG, priority 2008, dated 2013).

Molecules are shown by their SMILES. Some results are limits rather than exact numbers.

In the test the target is T1, GST-JAK2(808-1132) (Homo sapiens, UniProt O60674).
T1 construct: GST-JAK2(808-1132); purchased Invitrogen (Carlsbad, USA) #4288
T1 sequence (O60674 808-1132): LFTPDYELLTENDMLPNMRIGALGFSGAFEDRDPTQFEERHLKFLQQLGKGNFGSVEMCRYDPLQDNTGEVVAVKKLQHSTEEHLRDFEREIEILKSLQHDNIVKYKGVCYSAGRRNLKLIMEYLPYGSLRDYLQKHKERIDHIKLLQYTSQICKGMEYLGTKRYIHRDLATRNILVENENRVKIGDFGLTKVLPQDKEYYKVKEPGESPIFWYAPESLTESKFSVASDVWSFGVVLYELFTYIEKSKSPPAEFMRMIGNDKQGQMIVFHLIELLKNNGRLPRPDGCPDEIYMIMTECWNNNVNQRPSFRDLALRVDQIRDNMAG
Briefly: JAK2 kinase assay (Caliper mobility shift, LabChip 3000). It is filed as biochemical. An excerpt:
All four kinases of the JAK/TYK-kinase family were used as purified recombinant GST-fusion proteins, containing the active kinase domains. GST-JAK1 (866-1154), GST-JAK3(811-1124), and GST-TYK2(888-1187) were expressed and purified by affinity chromatography at the EPK biology unit. GST-JAK2(808-1132) was purchased from Invitrogen (Carlsbad, USA, #4288).
The kinase assays were based on the Caliper mobility shift assay using the LabChip 3000 systems. This technology is similar to capillary electrophoresis and uses charge driven separation of substrate and product in a microfluidic chip.
All kinase reactions were performed in 384 well microtiter plates in a total reaction volume of 18 μl. The assay plates were prepared with 0.1 μl per well of test compound in the appropriate test concentration, as described under the section “preparation of compound dilutions”. The reactions were started by combining 9 μl of substrate mix (consisting of peptide and ATP) with 9 μl of kinase dilution. The reactions were incubated for 60 minutes at 30° C. and stopped by adding 70 μl of stop buffer (100 mM Hepes, 5% DMSO, 0.1% Coating reagent, 10 mM EDTA, 0.015% Brij 35).
Fluorescently labeled synthetic peptides were used as substrates in all reactions. A peptide derived from the sequence of IRS-1(IRS-1 peptide, SEQ ID NO: 1 FITC-Ahx-KKSRGDYMTMQIG-NH2) was used for JAK1 and TYK2 and a peptide named JAK3tide SEQ ID NO: 2 (FITC-GGEEEEYFELVKKKK-NH2) for JAK2 and JAK3. Specific assay conditions are described in Table1:
The terminated reactions were transferred to the Caliper LabChip 3000 reader and the turnover of each reaction was measured by determining the substrate/product ratio.
Test compounds were dissolved in DMSO (10 mM) and transferred into 1.4 mL flat bottom or V-shaped Matrix tubes carrying a unique 2D matrix chip by individual compound hubs. The numbers of these chips were distinctively linked to the individual compound identification numbers. The stock solutions were stored at −20° C. if not used immediately. For the test procedure the vials were defrosted and identified by a scanner whereby a working sheet was generated that guided the subsequent working steps. Compound dilutions were made in 96 well plates. This format enabled the assay of maximally 40 individual test compounds at 8 concentrations (single points) including 4 reference compounds. The dilution protocol included the production of pre-dilution plates, master plates and assay plates:
Pre-dilution plates: 96 polypropylene well plates were used as pre-dilution plates. A total of 4 pre-dilution plates were prepared including 10 test compounds each on the plate positions A1-A10, one standard compound at A11 and one DMSO control at A12. All dilution steps were done on a HamiltonSTAR robot.
Master plates: 100 μL of individual compound dilutions including standard compound and controls of the 4 “pre-dilution plates” were transferred into a 384 “master plate” including the following concentrations 1,820, […], 182, 54.6, 18.2, 5.46, 1.82 and 0.546 μM, respectively in 90% of DMSO.
Assay plates: Identical assay plates were then prepared by pipetting 100 nL each of compound dilutions of the master plates into 384-well “assay plates”. In the following the compounds were mixed with 9 μL of assays components plus 9 μL enzyme corresponding to a 1:181 dilution steps enabling the final concentration of 10, 3.0, 1.0, 0.3, 0.1, 0.03, 0.01 and 0.003 μM, respectively. The preparation of the master plates were handled by the Matrix PlateMate Plus robot and replication of assay plates by the HummingBird robot.
Broadly, the IC50 is the concentration at which inhibition is half-maximal. On to `CN1CCN(Cc2ccc(Nc3ncc4ccn(-c5cc(F)c(C(=O)N6CCOCC6)c(F)c5)c4n3)cc2C(F)(F)F)CC1` [Example 204, (2,6-Difluoro-4-{2-[4-(4-methyl-piperazin-1-ylmethyl)-3-trifluoromethyl-phenylamino]-pyrrolo[2,3-d]pyrimidin-7-yl}-phenyl)-morpholin-4-yl-methanone], for which the IC50 is < 3 nM. The same measure for `CN1CCN(Cc2ccc(Nc3ncc4ccn(-c5cc(F)c(C(=O)N6CCOCC6)c(F)c5)c4n3)cc2)CC1` [Example 205, (2,6-Difluoro-4-{2-[4-(4-methyl-piperazin-1-ylmethyl)-phenylamino]-pyrrolo[2,3-d]pyrimidin-7-yl}-phenyl)-morpholin-4-yl-methanone]: 5 nM; for `O=C(c1c(F)cc(-n2ccc3cnc(Nc4ccc(CN5CCOCC5)cc4)nc32)cc1F)N1CCOCC1` [Example 206, {2,6-Difluoro-4-[2-(4-morpholin-4-ylmethyl-phenylamino)-pyrrolo[2,3-d]pyrimidin-7-yl]-phenyl}-morpholin-4-yl-methanone]: < 3 nM; for `CN1CCN(c2cccc(Nc3ncc4ccn(-c5cc(F)c(C(=O)N6CCOCC6)c(F)c5)c4n3)c2)CC1` [Example 207, (2,6-Difluoro-4-{2-[3-(4-methyl-piperazin-1-yl)-phenylamino]-pyrrolo[2,3-d]pyrimidin-7-yl}-phenyl)-morpholin-4-yl-methanone]: < 3 nM. The same measure for `Fc1cc(-n2ccc3cnc(Nc4ccccn4)nc32)cc(F)c1CN1CCOCC1` [Example 209, [7-(3,5-Difluoro-4-morpholin-4-ylmethyl-phenyl)-7H-pyrrolo[2,3-d]pyrimidin-2-yl]-pyridin-2-yl-amine]: 125 nM; for `Fc1cc(-n2ccc3cnc(Nc4ccncc4)nc32)cc(F)c1CN1CCOCC1` [Example 211, [7-(3,5-Difluoro-4-morpholin-4-ylmethyl-phenyl)-7H-pyrrolo[2,3-d]pyrimidin-2-yl]-pyridin-4-yl-amine]: 5.9 nM. The same measure for `Cc1ccc(Nc2ncc3ccn(-c4ccc(C(=O)N5CCOCC5)c(F)c4)c3n2)nc1C` [Example 222, {4-[2-(5,6-Dimethyl-pyridin-2-ylamino)-pyrrolo[2,3-d]pyrimidin-7-yl]-2-fluoro-phenyl}-morpholin-4-yl-methanone]: 290 nM; for `O=C(c1ccc(-n2ccc3cnc(Nc4ccc(C(F)(F)F)nc4)nc32)cc1F)N1CCOCC1` [Example 227, {2-Fluoro-4-[2-(6-trifluoromethyl-pyridin-3-ylamino)-pyrrolo[2,3-d]pyrimidin-7-yl]-phenyl}-morpholin-4-yl-methanone]: 41.5 nM. As for `N#Cc1ccc(Nc2ncc3ccn(-c4ccc(C(=O)N5CCOCC5)c(F)c4)c3n2)cn1` [Example 228, 5-{7-[3-Fluoro-4-(morpholine-4-carbonyl)-phenyl]-7H-pyrrolo[2,3-d]pyrimidin-2-ylamino}-pyridine-2-carbonitrile], the IC50 was found to be 56.5 nM.

As to `O=C(c1ccc(-n2ccc3cnc(Nc4ccc(C(F)(F)F)nc4)nc32)cc1)N1CCOCC1` [Example 236, Morpholin-4-yl-{4-[2-(6-trifluoromethyl-pyridin-3-ylamino)-pyrrolo[2,3-d]pyrimidin-7-yl]-phenyl}-methanone], the IC50 was found to be 46 nM. The same measure for `C[C@@H]1CN(Cc2ccc(Nc3ncc4ccn(-c5cc(F)c(CN6CCOCC6)c(F)c5)c4n3)cc2)C[C@H](C)N1` [Example 254]: < 3 nM; for `CS(=O)(=O)c1ccc(-n2ccc3cnc(Nc4ccnc(N5CCNC6(CC6)C5)c4)nc32)cc1` [Example 275, [2-(4,7-Diaza-spiro[2.5]oct-7-yl)-pyridin-4-yl]-[7-(4-methanesulfonyl-phenyl)-7H-pyrrolo[2,3-d]pyrimidin-2-yl]-amine]: 7 nM; for `CN1CCN(c2ncc(Nc3ncc4ccn(-c5ccc(S(C)(=O)=O)cc5)c4n3)cn2)CC1` [Example 276, [7-(4-Methanesulfonyl-phenyl)-7H-pyrrolo[2,3-d]pyrimidin-2-yl]-[2-(4-methyl-piperazin-1-yl)-pyrimidin-5-yl]-amine]: 120 nM. The same measure for `CN1CCN(c2ccc(Nc3ncc4ccn(-c5ccc(C(O)C6CC6)cc5)c4n3)cn2)CC1` (stereo not drawn) [Example 277, Cyclopropyl-(4-{2-[6-(4-methyl-piperazin-1-yl)-pyridin-3-ylamino]-pyrrolo[2,3-d]pyrimidin-7-yl}-phenyl)-methanol]: 8.3 nM.

With `CC(O)c1ccc(-n2ccc3cnc(Nc4ccc(N5CCN(C)CC5)nc4)nc32)cc1` (stereo not drawn) [Example 279, 1-(4-{2-[6-(4-Methyl-piperazin-1-yl)-pyridin-3-ylamino]-pyrrolo[2,3-d]pyrimidin-7-yl}-phenyl)-ethanol], the IC50 came out at 4 nM. The same measure for `CN1CCN(c2ccc(Nc3ncc4ccn(-c5cc(F)c(CO)c(F)c5)c4n3)cn2)CC1` [Example 280, (2,6-Difluoro-4-{2-[6-(4-methyl-piperazin-1-yl)-pyridin-3-ylamino]-pyrrolo[2,3-d]pyrimidin-7-yl}-phenyl)-methanol]: 3.5 nM; for `O=C(c1c(F)cc(-n2ccc3cnc(Nc4ccnc(N5CCNC6(CC6)C5)c4)nc32)cc1F)N1CCOCC1` [Example 281, (4-{2-[2-(4,7-Diaza-spiro[2.5]oct-7-yl)-pyridin-4-ylamino]-pyrrolo[2,3-d]pyrimidin-7-yl}-2,6-difluoro-phenyl)-morpholin-4-yl-methanone]: 24 nM. The same measure for `CS(=O)(=O)c1ccc(-n2ccc3cnc(Nc4ccc(N5CCNCC5)nc4)nc32)cc1` [Example 282, [7-(4-Methanesulfonyl-phenyl)-7H-pyrrolo[2,3-d]pyrimidin-2-yl]-(6-piperazin-1-yl-pyridin-3-yl)-amine]: 82 nM; for `CN1CCN(c2ccc(Nc3ncc4ccn(-c5ccc(N6CCCC6=O)cc5)c4n3)cn2)CC1` [Example 283, 1-(4-{2-[6-(4-Methyl-piperazin-1-yl)-pyridin-3-ylamino]-pyrrolo[2,3-d]pyrimidin-7-yl}-phenyl)-pyrrolidin-2-one]: 23 nM. Under `CCN1CCN(c2ccc(Nc3ncc4ccn(-c5ccc(CC(=O)N6CCN(C)CC6)cc5)c4n3)cc2C)CC1` [Example 284, 2-(4-{2-[4-(4-Ethyl-piperazin-1-yl)-3-methyl-phenylamino]-pyrrolo[2,3-d]pyrimidin-7-yl}-phenyl)-1-(4-methyl-piperazin-1-yl)-ethanone] stands 3.7 nM; under `CCN1CCN(c2ccc(Nc3ncc4ccn(-c5ccc(CN6CCOCC6)c(F)c5)c4n3)cc2C)CC1` [Example 285, [4-(4-Ethyl-piperazin-1-yl)-3-methyl-phenyl]-[7-(3-fluoro-4-morpholin-4-ylmethyl-phenyl)-7H-pyrrolo[2,3-d]pyrimidin-2-yl]-amine], < 3 nM; under `O=C(c1ccc(-n2ccc3cnc(Nc4ccc(CN5CCNCC5)cc4)nc32)cc1F)N1CCOCC1` [Example 313, {2-Fluoro-4-[2-(4-piperazin-1-ylmethyl-phenylamino)-pyrrolo[2,3-d]pyrimidin-7-yl]-phenyl}-morpholin-4-yl-methanone], 3.7 nM. With `O=C(c1c(F)cc(-n2ccc3cnc(Nc4ccc(CN5CCNCC5)cc4)nc32)cc1F)N1CCOCC1` [Example 314, {2,6-Difluoro-4-[2-(4-piperazin-1-ylmethyl-phenylamino)-pyrrolo[2,3-d]pyrimidin-7-yl]-phenyl}-morpholin-4-yl-methanone], the IC50 was < 3 nM. Under `Fc1cc(-n2ccc3cnc(Nc4ccc(CN5CCNCC5)cc4)nc32)cc(F)c1CN1CCOCC1` [Example 315, [7-(3,5-Difluoro-4-morpholin-4-ylmethyl-phenyl)-7H-pyrrolo[2,3-d]pyrimidin-2-yl]-(4-piperazin-1-ylmethyl-phenyl)-amine] stands < 3 nM.
